According to article PMC4031276 (Molecular pharmaceutics, 2013):
Like-named read-outs stand apart in the source and are kept apart here. Marks after values point to notes of the source that are not given here.

Assays:
hASBT [1] = target: T1, hASBT (Homo sapiens, UniProt Q12908); details: native glycine conjugates, for comparison; cited from earlier work
T1 sequence (Q12908 1-348): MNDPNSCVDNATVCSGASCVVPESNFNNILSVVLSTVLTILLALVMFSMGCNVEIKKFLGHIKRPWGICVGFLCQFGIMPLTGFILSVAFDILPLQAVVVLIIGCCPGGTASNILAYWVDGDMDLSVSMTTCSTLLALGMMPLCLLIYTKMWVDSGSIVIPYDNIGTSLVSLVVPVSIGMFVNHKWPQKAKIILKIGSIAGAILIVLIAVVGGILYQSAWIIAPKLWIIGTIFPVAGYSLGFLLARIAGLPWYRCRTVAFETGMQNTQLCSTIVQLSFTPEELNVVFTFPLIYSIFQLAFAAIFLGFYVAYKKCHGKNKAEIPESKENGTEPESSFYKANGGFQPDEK

hASBT [2] = target: T1, hASBT; details: read-out: Ki (μM ±SEM); glycine conjugates of native bile acids, provided for comparison; cited from earlier work
hASBT-MDCK monolayer [3] = details: passive permeability of native glycine conjugates, for comparison; cited from earlier work
hASBT [4] = target: T1, hASBT; assay: hASBT-mediated active uptake into hASBT-MDCK monolayers; format: cell-based; details: for Kt fold higher than Ki: Kt vs Ki; for Kt (μM ±SEM): Michaelis-Menten transport constant, gly-iBA 1–200 μM, 10 min, 37 °C; for fold lower Jmax than corresponding native BA: TCA-normalized Jmax; for Relative Jmax (% TCA Jmax ±SEM): gly-iBAs, normalised to TCA Jmax
hASBT-MDCK monolayer [5] = details: for Pp (cm/s ± SEM x 10^6): passive permeability of gly-iBAs, sodium-free buffer
hASBT [6] = target: T1, hASBT; assay: cis-inhibition of taurocholate; details: for fold weaker inhibitory potency (Ki) than corresponding native BA: 3-hydroxyl epimerization (α to β)
[7] = maximum substrate flux, mean ± SEM
[8] = read-out: Ki (μM ±SEM), glycine conjugates of iso-bile acids, TCA 2.5 μM, 10 min, 37 °C, pH 6.8, mean (SEM)

| Compound | Relative Jmax (% TCA Jmax ±SEM) (hASBT [1]) | Ki (hASBT [2]) [µM] | Pp (cm/s ± SEM x 10^6) (hASBT-MDCK monolayer [3]) | Pp (cm/s ± SEM x 10^6) (hASBT-MDCK monolayer [5]) | Absolute Jmax (hASBT [4]; [7]) [pmol/cm^2/s] | Ki (hASBT [6]; [8]) [µM] | also measured |
| --- | --- | --- | --- | --- | --- | --- | --- |
| C[C@H](CCC(=O)NCC(=O)O)[C@H]1CC[C@H]2[C@@H]3[C@H](O)C[C@@H]4C[C@H](O)CC[C@]4(C)[C@H]3C[C@H](O)[C@]12C [Gly-CA] | 152 (24) % TCA Jmax | 7.53 | 0.220 (0.157) cm/s x 10^6 | – | – | – | – |
| C[C@H](CCC(=O)NCC(=O)O)[C@H]1CC[C@H]2[C@@H]3[C@H](O)C[C@@H]4C[C@H](O)CC[C@]4(C)[C@H]3CC[C@]12C [Gly-CDCA] | 432 (58) % TCA Jmax | 0.992 | 0.414 (0.201) cm/s x 10^6 | – | – | – | – |
| C[C@H](CCC(=O)NCC(=O)O)[C@H]1CC[C@H]2[C@@H]3CC[C@@H]4C[C@H](O)CC[C@]4(C)[C@H]3C[C@H](O)[C@]12C [Gly-DCA] | 349 (47) % TCA Jmax | 3.22 | 0.520 (0.162) cm/s x 10^6 | – | – | – | – |
| C[C@H](CCC(=O)NCC(=O)O)[C@H]1CC[C@H]2[C@@H]3CC[C@@H]4C[C@H](O)CC[C@]4(C)[C@H]3CC[C@]12C [Gly-LCA] | 405 (64) % TCA Jmax | 0.427 | 0.865 (0.780) cm/s x 10^6 | – | – | – | – |
| C[C@H](CCC(=O)NCC(=O)O)[C@H]1CC[C@H]2[C@@H]3[C@@H](O)C[C@@H]4C[C@H](O)CC[C@]4(C)[C@H]3CC[C@]12C [Gly-UDCA] | 226 (36) % TCA Jmax | 3.41 | 1.01 (0.13) cm/s x 10^6 | – | – | – | – |
| C[C@H](CCC(=O)NCCS(=O)(=O)O)[C@H]1CC[C@H]2[C@@H]3[C@H](O)C[C@@H]4C[C@H](O)CC[C@]4(C)[C@H]3C[C@H](O)[C@]12C [TCA, Taurocholic acid, reference compound] | – | – | – | – | – | – | Absolute Jmax (hASBT [4]): c Absolute Jmax (pmol/cm^2/s) for each gly-iBA were 0.017 ± 0.006 (gly-iLCA), 0.065 ± 0.004 (gly-iCDCA), 0.010 ± 0.003 (gly-iDCA), 0.038 ± 0.006 (gly-iUDCA), and 0.166 ± 0.024 (gly-iCA) respectively. TCA Pp and Jmax were 1.56 x 10^−6 cm/s and 0.271 ± 0.020 pmol/cm^2/s, respectively. |
| C[C@H](CCC(=O)NCC(=O)O)[C@H]1CC[C@H]2[C@@H]3[C@H](O)C[C@@H]4C[C@@H](O)CC[C@]4(C)[C@H]3C[C@H](O)[C@]12C [gly-iCA, 3β,7α, 12α-trihydroxy-5β-cholanic acid glycine amide] | – | – | – | 0.740 (0.120) cm/s x 10^6 | 0.166 ± 0.024 | 23.3 | Kt fold higher than Ki (hASBT [4]): about 10 fold; Kt (μM ±SEM) (hASBT [4]): 163 (37) μM; fold lower Jmax than corresponding native BA (hASBT [4]): 3 fold; Relative Jmax (% TCA Jmax ±SEM) (hASBT [4]): 61.2 (9.9) % TCA Jmax |
| C[C@H](CCC(=O)NCC(=O)O)[C@H]1CC[C@H]2[C@@H]3[C@H](O)C[C@@H]4C[C@@H](O)CC[C@]4(C)[C@H]3CC[C@]12C [gly-iCDCA, 3β, 7α-dihydroxy-5β-cholanic acid glycine amide] | – | – | – | 0.058 (0.07) cm/s x 10^6 | 0.065 ± 0.004 | 4.53 | Kt fold higher than Ki (hASBT [4]): about 10 fold; Kt (μM ±SEM) (hASBT [4]): 59.5 ± 8.8 µM; fold lower Jmax than corresponding native BA (hASBT [4]): 18 fold; Relative Jmax (% TCA Jmax ±SEM) (hASBT [4]): 23.9 (2.3) % TCA Jmax; fold weaker transport affinity (Kt) than native counterpart (hASBT [4]; vs gly-CDCA): 90 fold |
| C[C@H](CCC(=O)NCC(=O)O)[C@H]1CC[C@H]2[C@@H]3CC[C@@H]4C[C@@H](O)CC[C@]4(C)[C@H]3C[C@H](O)[C@]12C [gly-iDCA, 3β, 12α-dihydroxy-5β-cholanic acid glycine amide] | – | – | – | 0.730 (0.020) cm/s x 10^6 | 0.010 ± 0.003 | 12.4 | Kt (μM ±SEM) (hASBT [4]): 149 (75) ^ns μM; Relative Jmax (% TCA Jmax ±SEM) (hASBT [4]): 3.68 (1.14) ^e % TCA Jmax |
| C[C@H](CCC(=O)NCC(=O)O)[C@H]1CC[C@H]2[C@@H]3CC[C@@H]4C[C@@H](O)CC[C@]4(C)[C@H]3CC[C@]12C [gly-iLCA, 3β-hydroxy-5β-cholanic acid glycine amide] | – | – | – | 16.6 (0.8) cm/s x 10^6 | 0.017 ± 0.006 | 5.07 | Pp fold that of native counterpart (hASBT-MDCK monolayer [5]; vs gly-LCA): 20 fold; Estimate for Kt (hASBT [4]; estimate, not determinable due to high passive permeability): 6.82 (4.98) μM; fold weaker inhibitory potency (Ki) than corresponding native BA (hASBT [6]): 12 fold |
| C[C@H](CCC(=O)NCC(=O)O)[C@H]1CC[C@H]2[C@@H]3[C@@H](O)C[C@@H]4C[C@@H](O)CC[C@]4(C)[C@H]3CC[C@]12C [gly-iUDCA, 3β,7β-dihydroxy-5β-cholanic acid glycine amide] | – | – | – | 0.690 (0.090) cm/s x 10^6 | 0.038 ± 0.006 | 7.66 | Kt fold higher than Ki (hASBT [4]): about 10 fold; Kt (μM ±SEM) (hASBT [4]): 75.3 (22.1) μM; fold lower Jmax than corresponding native BA (hASBT [4]): 16 fold; Relative Jmax (% TCA Jmax ±SEM) (hASBT [4]): 14.0 (2.4) % TCA Jmax |
| C[C@H](CCC(=O)O)[C@H]1CC[C@H]2[C@@H]3[C@H](O)C[C@@H]4C[C@@H](O)CC[C@]4(C)[C@H]3CC[C@]12C [iCDCA, 3β, 7α-dihydroxy-5β-cholanic acid] | – | – | – | – | – | – | Ki (hASBT [6]): 11.8 µM; fold weaker inhibitory potency (Ki) than corresponding native BA (hASBT [6]): 6 fold; fold more potent (Ki) than iUDCA (hASBT [6]; 7α-hydroxyl vs 7β-epimer): 2 fold |
| C[C@H](CCC(=O)O)[C@H]1CC[C@H]2[C@@H]3CC[C@@H]4C[C@@H](O)CC[C@]4(C)[C@H]3C[C@H](O)[C@]12C [iDCA, 3β, 12α-dihydroxy-5β-cholanic acid] | – | – | – | – | – | – | Ki (hASBT [6]): 11.4 µM |
| C[C@H](CCC(=O)O)[C@H]1CC[C@H]2[C@@H]3CC[C@@H]4C[C@@H](O)CC[C@]4(C)[C@H]3CC[C@]12C [iLCA, 3β-hydroxy-5β-cholanic acid] | – | – | – | – | – | – | Ki (hASBT [6]): 5.36 µM |
| C[C@H](CCC(=O)O)[C@H]1CC[C@H]2[C@@H]3[C@@H](O)C[C@@H]4C[C@@H](O)CC[C@]4(C)[C@H]3CC[C@]12C [iUDCA, 3β, 7β-dihydroxy-5β-cholanic acid] | – | – | – | – | – | – | Ki (hASBT [6]): 24.7 µM |
